According to publication PMC8488693 (Proceedings of the National Academy of Sciences of the …, 2021):

Experiments:
Hs20S β5c = Hs20S β5c (Homo sapiens, UniProt P20618+P28074); experiment: Hs20S β5c activity, Ac-WLA-AMC cleavage with human PA28αβ; type: biochemical
Pf cultures = conditions: ref [9]; cited from earlier work

CC(C)C[C@H](NC(=O)[C@H](Cc1ccccc1)NC(=O)c1cnccn1)B(O)O [Bortezomib, bortezomib, reference compound]
More potent as inhibitor of Hsβ5c activity than of Pfβ5 activity (Hs20S β5c): twofold
Synergy with dihydroxyartemisinin (DHA) (Pf cultures): strong synergy
